{
  "source": "patent EP0584511B1",
  "about": "“PROCESS FOR THE PREPARATION OF A COMPOSITE TEXTILE MATERIAL” (ALCANTARA S.p.A., priority 1992, dated 1994)",
  "origin": "cited, not measured here",
  "data": [
    {"conditions": "substituted aromatic amines proposed as replacement extenders; background statement", "values": [
      {"compound": "Cc1cc(Cc2cc(C)c(N)c(C(C)C)c2)cc(C(C)C)c1N", "note": "[4-4' methylene-bis-(2 isopropyl-6 methylaniline)]", "classification at Ames's test": "non cancerogenic"},
      {"compound": "CCc1cc(Cc2cc(CC)c(N)c(CC)c2Cl)c(Cl)c(CC)c1N", "note": "[4-4' methylene-bis-(3-chloro-2,6-diethylaniline)]", "classification at Ames's test": "non cancerogenic"},
      {"compound": "diethyltoluene diamine", "classification at Ames's test": "non cancerogenic"}
    ]}
  ]
}
